Experimental data from US12350306B2, “Modifying taste and sensory irritation of smokeless tobacco and non-tobacco products” (Altria Client Services LLC, priority 2013, dated 2025).

What was measured:
[1] = Perceived bitterness of caffeinated water formulations; type: in vivo; details: caffeinated water formulation
Procedure: Liquid formulations were prepared by combining caffeinated water or commercially available grapefruit juice with Cremophor® alone, citric acid alone or the combination of Cremophor® and citric acid. […] Because grapefruit juice naturally contains citric acid, citric acid was not added to the grapefruit juice formulations.

[2] = experimental animal models; cited from earlier work
TRPV1 channel = TRPV1 channel (Homo sapiens, UniProt Q8NER1); details: cited from earlier work
TRPV1 channel, sequence (Q8NER1 whole entry): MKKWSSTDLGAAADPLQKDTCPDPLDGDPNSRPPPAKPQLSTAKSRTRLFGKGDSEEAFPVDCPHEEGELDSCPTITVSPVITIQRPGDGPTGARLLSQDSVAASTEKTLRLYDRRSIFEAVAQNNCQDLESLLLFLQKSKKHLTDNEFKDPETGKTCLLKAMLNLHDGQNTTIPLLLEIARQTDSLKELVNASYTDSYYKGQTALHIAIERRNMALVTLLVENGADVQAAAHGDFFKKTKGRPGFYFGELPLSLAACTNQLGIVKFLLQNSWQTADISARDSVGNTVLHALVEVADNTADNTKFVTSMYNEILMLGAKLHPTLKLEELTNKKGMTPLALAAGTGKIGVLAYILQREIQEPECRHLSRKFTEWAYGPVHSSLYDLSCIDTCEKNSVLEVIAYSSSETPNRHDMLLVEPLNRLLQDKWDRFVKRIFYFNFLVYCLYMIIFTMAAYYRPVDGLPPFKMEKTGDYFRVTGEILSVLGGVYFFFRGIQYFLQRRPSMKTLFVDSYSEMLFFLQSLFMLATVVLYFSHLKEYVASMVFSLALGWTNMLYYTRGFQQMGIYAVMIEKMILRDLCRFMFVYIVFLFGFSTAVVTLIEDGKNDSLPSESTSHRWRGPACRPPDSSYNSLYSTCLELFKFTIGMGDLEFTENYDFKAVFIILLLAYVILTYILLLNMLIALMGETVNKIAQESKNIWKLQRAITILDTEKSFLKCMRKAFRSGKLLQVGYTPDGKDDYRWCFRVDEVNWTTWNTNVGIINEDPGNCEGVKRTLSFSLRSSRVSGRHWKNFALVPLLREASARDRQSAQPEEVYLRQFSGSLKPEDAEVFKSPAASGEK

Row | Structure (SMILES) | perceived bitterness [1] | anti-inflammatory effects [2] | TRPV1 channel desensitization (TRPV1 channel)
1 | O=C(O)CC(O)(CC(=O)O)C(=O)O [citric acid] | little noticeable effect |  | 
2 | CCCCCC[C@@H](O)C/C=C/CCCCCCCC(=O)O (stereo in doubt) [Ricinoleic acid, 12-hydroxy-9-cis-octadecenoic acid] |  | anti-inflammatory effects | can desensitize the TRPV1 channel
